Experimental data taken from US11913030B2, “Method of preparing mimicking angiogenic co-spheroids and application thereof” (NATIONAL TAIWAN UNIVERSITY, priority 2018, dated 2024).

Key:
[1] = test system: ECs in NSC/EC co-spheroids; test: qRT-PCR of EC activity and angiogenic markers in co-spheroids encapsulated in gelatin-based hydrogel; type: cell-based; details: FGF2 1 μg/mL in gelatin-based hydrogel, 3 days
Protocol: Total RNA from the adherent cells or cell spheroids formed on CS-HA substrates and embedded in the hydrogels was extracted by Trizol reagent (Invitrogen) as the manufacturer's instructions. One microgram of total RNA was further subjected to the cDNA synthesis. cDNA pool was generated by RevertAid First Strand cDNA Synthesis Kit (MBI Fermentas, Canada) using the standard protocol. qRT-PCR was performed by StepOnePlus thermos cycler (Applied Biosystems) using the DyNAmo Flash SYBR Green qPCR Kit (Finnzymes Oy, Finland). […]
To investigate whether EC activity in NSC/EC co-spheroids was promoted after encapsulation in gelatin-based hydrogel, the co-spheroids that were cultured on CS-HA substrates for 2 days were collected, and then encapsulated by gelatin-based hydrogel. After encapsulation for 3 days, the expression of several markers representative of mitogenic and angiogenic activities of ECs was determined.
On the other hand, a relative long-term culture of co-spheroids in the gelatin-based hydrogel containing FGF2 for 12 days was also performed, and the activity of ECs was analyzed by gene expression.
To further verify the angiogenic potential of ECs in the co-spheroids, more angiogenic markers for ECs including angiopoietin-1, angiopoietin-2, and tyrosine kinase 1 (Flt-1) were analyzed.

[2] = test system: NSC/EC co-spheroids; test: Morphology and relative size of co-spheroids encapsulated in hydrogels; type: cell-based; details: FGF2 1 μg/mL
Protocol: To observe the morphological alteration of NSC/EC co-spheroids embedded in the hydrogels, the cells were labeled with fluorescent dyes before seeding on CS-HA substrates. After gelation, the culture medium was added and changed every 2 days. The morphologies of cell spheroids formed on CS/CS-HA substrates and encapsulated in the various hydrogels were observed by a fluorescence microscope (Leica, DMIRB), and the relative sizes of cell spheroids were determined by ImageJ software (National Institutes of Health, USA).
To support the long-term growth of NSC/EC co-spheroids, the co-spheroids derived from the CS-HA substrates were respectively embedded in the CS-based and gelatin-based hydrogels. […] On the other hand, the cell growth rates in the spheroids were evaluated by the spheroid size. Cells in EC mono-spheroids grew faster than those in NSC mono-spheroids, and the growth rate in NSC/EC co-spheroids was the slowest in both hydrogels, though the difference among each group was not statistically significant.
In some embodiments, the fibroblast growth factor 2 (FGF2) protein was used to promote the growth of co-spheroids in hydrogels. In order to evenly add FGF2 to hydrogels, FGF2 (PeproTech, USA) was added to the hydrogel solution and mixed before the gelation. The final concentration of the FGF2 protein in hydrogels was 1 μg/mL. […]

## fibroblast growth factor 2 [FGF2]
[1]
  expression of KDR, VEGF, ITGb1, VE-cadherin upon addition of FGF2: did not seem to be apparently affected
[2]; in CS-based hydrogel
  growth rates of the co-spheroids after FGF2 induction: not promoted
[2]; in gelatin-based hydrogel, from 6 days after encapsulation
  growth of co-spheroids after introduction of FGF2: lightly enhanced
